{"source": "the supplement of paper PMC10307832", "data": [{"compound": "CC1CC(=O)N(C2=CN=C(N=C2N1C3CCCC3)NC4=C(C=C(C=C4)C(=O)NC5CCN(CC5)C)OC)C [NPK76-II-72-1] + CC(=O)Nc1cccc(-n2c(=O)n(C3CC3)c(=O)c3c(Nc4ccc(I)cc4F)n(C)c(=O)c(C)c32)c1 [Trametinib] (partner 0.02 µM)", "assay": "relative viability (nuclei count vs DMSO), 5 days (fraction); higher = more cells survive", "settings": "first compound 1 µM", "method_in_brief": "(§1)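 Relative viability is defined as nuclei in treated wells over nuclei in vehicle wells. Duplicate plates were run and medians reported. Lung cancer cell lines in 1536-well plates were dosed by pin tool one day after seeding, with one drug or with a fixed anchor-drug dose plus five library-drug doses (not always all listed) in √10 steps, and nuclei were counted after 5 days.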", "values": [{"cell line": "NCI-H1944", "relative viability": 0.408}, {"cell line": "NCI-H358", "relative viability": 0.151}]}, {"compound": "CC[C@@H]1C(=O)N(C)c2cnc(Nc3ccc(C(=O)NC4CCN(C)CC4)cc3OC)nc2N1C1CCCC1 [BI-2536] + C[C@@H](Oc1cc(-c2cnn(C3CCNCC3)c2)cnc1N)c1c(Cl)ccc(F)c1Cl [Crizotinib] (partner 1 µM)", "assay": "relative viability (nuclei count vs DMSO), 5 days (fraction); higher = more cells survive", "settings": "first compound 0.01 µM", "method_in_brief": "as §1", "values": [{"cell line": "NCI-H727", "relative viability": 0.939}, {"cell line": "NCI-H1650", "relative viability": 0.948}, {"cell line": "EBC-1", "relative viability": 0.194}, {"cell line": "NCI-H1703", "relative viability": 0.626}, {"cell line": "NCI-H1993", "relative viability": 0.945}, {"cell line": "SW 1573", "relative viability": 0.774}, {"cell line": "NCI-H838", "relative viability": 0.886}, {"cell line": "LCLC-103H", "relative viability": 1.11}, {"cell line": "NCI-H520", "relative viability": 0.764}, {"cell line": "NCI-H2126", "relative viability": 1.04}, {"cell line": "EMC-BAC-2", "relative viability": 0.882}, {"cell line": "NCI-H2085", "relative viability": 0.895}, {"cell line": "Calu-6", "relative viability": 0.713}, {"cell line": "HCC-366", "relative viability": 0.528}, {"cell line": "NCI-H1666", "relative viability": 0.924}, {"cell line": "NCI-H596", "relative viability": 0.948}, {"cell line": "LK-2", "relative viability": 0.245}, {"cell line": "NCI-H2087", "relative viability": 0.892}, {"cell line": "SK-MES-1", "relative viability": 0.997}, {"cell line": "H3255", "relative viability": 0.909}, {"cell line": "COR-L23", "relative viability": 0.684}, {"cell line": "COR-L 105", "relative viability": 0.798}, {"cell line": "IA-LM", "relative viability": 0.771}, {"cell line": "LOU-NH91", "relative viability": 0.697}, {"cell line": "ChaGo-K-1", "relative viability": 1.05}, {"cell line": "NCI-H2170", "relative viability": 1.09}, {"cell line": "A549", "relative viability": 0.727}, {"cell line": "NCI-H1299", "relative viability": 0.946}, {"cell line": "CAL-12T", "relative viability": 0.532}, {"cell line": "NCI-H2228", "relative viability": 0.547}, {"cell line": "NCI-H1563", "relative viability": 0.902}, {"cell line": "NCI-H1944", "relative viability": 1.14}, {"cell line": "ABC-1", "relative viability": 1.27}, {"cell line": "NCI-H358", "relative viability": 0.446}]}, {"compound": "CC[C@@H]1C(=O)N(C)c2cnc(Nc3ccc(C(=O)NC4CCN(C)CC4)cc3OC)nc2N1C1CCCC1 [BI-2536] + C[C@@H](Oc1cc(-c2cnn(C3CCNCC3)c2)cnc1N)c1c(Cl)ccc(F)c1Cl [Crizotinib] (partner 1 µM)", "assay": "relative viability (nuclei count vs DMSO), 5 days (fraction); higher = more cells survive", "settings": "first compound 0.03162 µM", "method_in_brief": "as §1", "values": [{"cell line": "NCI-H727", "relative viability": 0.7}, {"cell line": "NCI-H1650", "relative viability": 0.742}, {"cell line": "EBC-1", "relative viability": 0.14}, {"cell line": "NCI-H1993", "relative viability": 0.906}, {"cell line": "SW 1573", "relative viability": 0.905}, {"cell line": "NCI-H838", "relative viability": 0.711}, {"cell line": "LCLC-103H", "relative viability": 0.986}, {"cell line": "NCI-H520", "relative viability": 0.323}, {"cell line": "NCI-H2126", "relative viability": 0.85}, {"cell line": "EMC-BAC-2", "relative viability": 0.791}, {"cell line": "NCI-H2085", "relative viability": 0.751}, {"cell line": "Calu-6", "relative viability": 0.4}, {"cell line": "HCC-366", "relative viability": 0.49}, {"cell line": "NCI-H1666", "relative viability": 0.899}, {"cell line": "NCI-H596", "relative viability": 1.05}, {"cell line": "LK-2", "relative viability": 0.237}, {"cell line": "NCI-H2087", "relative viability": 0.771}, {"cell line": "SK-MES-1", "relative viability": 1.01}, {"cell line": "H3255", "relative viability": 0.763}, {"cell line": "COR-L23", "relative viability": 0.566}, {"cell line": "COR-L 105", "relative viability": 0.611}, {"cell line": "IA-LM", "relative viability": 0.667}, {"cell line": "LOU-NH91", "relative viability": 0.671}, {"cell line": "ChaGo-K-1", "relative viability": 0.693}, {"cell line": "NCI-H2170", "relative viability": 1.13}, {"cell line": "A549", "relative viability": 0.565}, {"cell line": "NCI-H1299", "relative viability": 0.808}, {"cell line": "CAL-12T", "relative viability": 0.295}, {"cell line": "NCI-H2228", "relative viability": 0.466}, {"cell line": "NCI-H1563", "relative viability": 0.817}, {"cell line": "NCI-H1944", "relative viability": 1.3}, {"cell line": "ABC-1", "relative viability": 0.601}, {"cell line": "NCI-H358", "relative viability": 0.259}]}, {"compound": "CC[C@@H]1C(=O)N(C)c2cnc(Nc3ccc(C(=O)NC4CCN(C)CC4)cc3OC)nc2N1C1CCCC1 [BI-2536] + C[C@@H](Oc1cc(-c2cnn(C3CCNCC3)c2)cnc1N)c1c(Cl)ccc(F)c1Cl [Crizotinib] (partner 1 µM)", "assay": "relative viability (nuclei count vs DMSO), 5 days (fraction); higher = more cells survive", "settings": "first compound 0.1 µM", "method_in_brief": "as §1", "values": [{"cell line": "NCI-H727", "relative viability": 0.364}, {"cell line": "NCI-H1650", "relative viability": 0.208}, {"cell line": "EBC-1", "relative viability": 0.175}, {"cell line": "NCI-H1703", "relative viability": 0.173}, {"cell line": "NCI-H1993", "relative viability": 0.621}, {"cell line": "SW 1573", "relative viability": 0.708}, {"cell line": "NCI-H838", "relative viability": 0.232}, {"cell line": "LCLC-103H", "relative viability": 1.08}, {"cell line": "NCI-H520", "relative viability": 0.202}, {"cell line": "NCI-H2126", "relative viability": 0.85}, {"cell line": "EMC-BAC-2", "relative viability": 0.701}, {"cell line": "NCI-H2085", "relative viability": 0.578}, {"cell line": "Calu-6", "relative viability": 0.273}, {"cell line": "HCC-366", "relative viability": 0.369}, {"cell line": "NCI-H1666", "relative viability": 0.503}, {"cell line": "NCI-H596", "relative viability": 0.938}, {"cell line": "LK-2", "relative viability": 0.202}, {"cell line": "NCI-H2087", "relative viability": 0.518}, {"cell line": "SK-MES-1", "relative viability": 0.86}, {"cell line": "H3255", "relative viability": 0.515}, {"cell line": "COR-L23", "relative viability": 0.226}, {"cell line": "COR-L 105", "relative viability": 0.394}, {"cell line": "IA-LM", "relative viability": 0.125}, {"cell line": "LOU-NH91", "relative viability": 0.719}, {"cell line": "ChaGo-K-1", "relative viability": 0.704}, {"cell line": "NCI-H2170", "relative viability": 0.611}, {"cell line": "A549", "relative viability": 0.119}, {"cell line": "NCI-H1299", "relative viability": 0.663}, {"cell line": "CAL-12T", "relative viability": 0.409}, {"cell line": "NCI-H2228", "relative viability": 0.236}, {"cell line": "NCI-H1563", "relative viability": 0.822}, {"cell line": "NCI-H1944", "relative viability": 1.21}, {"cell line": "ABC-1", "relative viability": 0.353}, {"cell line": "NCI-H358", "relative viability": 0.22}]}, {"compound": "CC[C@@H]1C(=O)N(C)c2cnc(Nc3ccc(C(=O)NC4CCN(C)CC4)cc3OC)nc2N1C1CCCC1 [BI-2536] + C[C@@H](Oc1cc(-c2cnn(C3CCNCC3)c2)cnc1N)c1c(Cl)ccc(F)c1Cl [Crizotinib] (partner 1 µM)", "assay": "relative viability (nuclei count vs DMSO), 5 days (fraction); higher = more cells survive", "settings": "first compound 0.3162 µM", "method_in_brief": "as §1", "values": [{"cell line": "NCI-H727", "relative viability": 0.331}, {"cell line": "NCI-H1650", "relative viability": 0.143}, {"cell line": "EBC-1", "relative viability": 0.141}, {"cell line": "NCI-H1703", "relative viability": 0.131}, {"cell line": "NCI-H1993", "relative viability": 0.57}, {"cell line": "SW 1573", "relative viability": 0.17}, {"cell line": "NCI-H838", "relative viability": 0.156}, {"cell line": "LCLC-103H", "relative viability": 0.39}, {"cell line": "NCI-H520", "relative viability": 0.184}, {"cell line": "NCI-H2126", "relative viability": 0.341}, {"cell line": "EMC-BAC-2", "relative viability": 0.174}, {"cell line": "NCI-H2085", "relative viability": 0.254}, {"cell line": "Calu-6", "relative viability": 0.113}, {"cell line": "HCC-366", "relative viability": 0.0121}, {"cell line": "NCI-H1666", "relative viability": 0.306}, {"cell line": "NCI-H596", "relative viability": 0.493}, {"cell line": "LK-2", "relative viability": 0.177}, {"cell line": "NCI-H2087", "relative viability": 0.169}, {"cell line": "SK-MES-1", "relative viability": 0.212}, {"cell line": "H3255", "relative viability": 0.196}, {"cell line": "COR-L23", "relative viability": 0.11}, {"cell line": "COR-L 105", "relative viability": 0.288}, {"cell line": "IA-LM", "relative viability": 0.108}, {"cell line": "LOU-NH91", "relative viability": 0.325}, {"cell line": "ChaGo-K-1", "relative viability": 0.299}, {"cell line": "NCI-H2170", "relative viability": 0.244}, {"cell line": "A549", "relative viability": 0.0589}, {"cell line": "NCI-H1299", "relative viability": 0.266}, {"cell line": "CAL-12T", "relative viability": 0.128}, {"cell line": "NCI-H2228", "relative viability": 0.207}, {"cell line": "NCI-H1563", "relative viability": 0.621}, {"cell line": "NCI-H1944", "relative viability": 0.184}, {"cell line": "ABC-1", "relative viability": 0.205}, {"cell line": "NCI-H358", "relative viability": 0.173}]}, {"compound": "CC[C@@H]1C(=O)N(C)c2cnc(Nc3ccc(C(=O)NC4CCN(C)CC4)cc3OC)nc2N1C1CCCC1 [BI-2536] + C[C@@H](Oc1cc(-c2cnn(C3CCNCC3)c2)cnc1N)c1c(Cl)ccc(F)c1Cl [Crizotinib] (partner 1 µM)", "assay": "relative viability (nuclei count vs DMSO), 5 days (fraction); higher = more cells survive", "settings": "first compound 1 µM", "method_in_brief": "as §1", "values": [{"cell line": "NCI-H727", "relative viability": 0.295}, {"cell line": "NCI-H1650", "relative viability": 0.11}, {"cell line": "EBC-1", "relative viability": 0.145}, {"cell line": "NCI-H1703", "relative viability": 0.0732}, {"cell line": "NCI-H1993", "relative viability": 0.693}, {"cell line": "SW 1573", "relative viability": 0.126}, {"cell line": "NCI-H838", "relative viability": 0.114}, {"cell line": "LCLC-103H", "relative viability": 0.154}, {"cell line": "NCI-H520", "relative viability": 0.117}, {"cell line": "NCI-H2126", "relative viability": 0.253}, {"cell line": "EMC-BAC-2", "relative viability": 0.145}, {"cell line": "NCI-H2085", "relative viability": 0.307}, {"cell line": "Calu-6", "relative viability": 0.102}, {"cell line": "HCC-366", "relative viability": 0.0124}, {"cell line": "NCI-H1666", "relative viability": 0.321}, {"cell line": "NCI-H596", "relative viability": 0.443}, {"cell line": "LK-2", "relative viability": 0.245}]}]}
